Experimental data from US20260167623A1 (NIKANG THERAPEUTICS, INC., priority 2022, published 2026).

Target: T1, CDK2 (Homo sapiens, UniProt P24941)
T1 construct: High-Throughput Measurement of Cellular Endogenous CDK2; endogenous in cells; host or cells: OVCAR3
Assay: Inhibition of CDK2: phospho-Rb (S807/811) HTRF measurement in OVCAR3 cells, 24 h
Format: cell-based
Conditions: 24 h compound treatment, read-out: pRB_OVCAR3_24h
Protocol: Inhibition of CDK2: Phospho-R^b Measurement in Cells
Phosphorylation of RB protein at S807/811 were measured using HTRF phospho-RB cellular kits (Cat #64RBS807PEG) from Cisbio.
On Day 1, OVCAR3 (CDK2 dependent cell line) cells were seeded into 96-well tissue-culture treated plates at 20,000 cells/well in 200 μL and incubated overnight at 37° C. in CO2 atmosphere. On Day 2, the cells were treated with test compounds at concentrations from 0.3 to 10,000 nM using HP D300 digital dispenser. Twenty-four hours after compound treatment, cell culture media is removed by flicking the plate and tapping the plate against clean paper towel. 30 μL 1× lysis buffer was supplemented from the kit was added to each well and the plate was incubated at room temperature on shaker for 30 min. After homogenization by pipetting up and down, 8 μL cell lysate from 96-well cell culture plate was transferred to 384-well small volume white detection plate. 2 μL premixed detection solution was added and the plate was covered with sealer. To prepare the detection solution, d2 conjugated-phospho-RB antibody and Eu-cryptate conjugated phosphor-RB antibody were diluted into detection buffer following manufacturer's instruction. Detection plates were incubated for 4 h at room temperature and read on ClarioStar (BMG Labtech) in TR-FRET mode (665 nM and 620 nM). The TR-FRET ratio (665 nM/620 nM) was plotted against the compound concentration and normalized to DMSO controls. Half maximal inhibition concentration (IC50) values were calculated with a four-parameter logistic fit using GraphPad Prism (version 8; La Jolla, CA).

IC50	Compound
500 to 2500 nM	Cn1nc(N2CCC(=O)NC2=O)c2ccc(N3CC4(CN(Cc5cccc(S(=O)(=O)N6CCC(Nc7ncc(Cl)cn7)CC6)c5)C4)C3)cc21 [Example 46]
> 2500 nM	Cn1nc(N2CCC(=O)NC2=O)c2ccc(N3CCC(CN4CCN(c5cccc(S(=O)(=O)N6CCC(Nc7ncc(Cl)cn7)CC6)c5)CC4)CC3)cc21 [Example 138, 1-(6-(4-((4-(3-((4-((5-chloropyrimidin-2-yl)amino)piperidin-1-yl)sulfonyl)phenyl)-piperazin-1-yl)methyl)piperidin-1-yl)-1-methyl-1H-indazol-3-yl)dihydropyrimidine-2,4(1H,3H)-dione]
100 to 500 nM	Cn1nc(N2CCC(=O)NC2=O)c2cc(F)c(N3CCN(CC4CCN(c5cccc(S(=O)(=O)N6CCC(Nc7ncc(C(F)(F)F)cn7)CC6)c5)CC4)CC3)cc21 [Example 110, 1-(5-fluoro-1-methyl-6-(4-((1-(3-((4-((5-(trifluoromethyl)pyrimidin-2-yl)amino)-piperidin-1 - yl)sulfonyl)phenyl)piperidin-4-yl)methyl)piperazin-1-yl)-1H-indazol-3-yl)dihydropyrimidine-2,4(1H,3H)-dione]
100 to 500 nM	Cn1nc(N2CCC(=O)NC2=O)c2ccc(C3=CCN(CC4CCN(c5cccc(S(=O)(=O)N6CCC(Nc7ncc(Cl)cn7)CC6)c5)CC4)CC3)cc21 [Example 134, 1-(6-(1-((1-(3-((4-((5-chloropyrimidin-2-yl)amino)piperidin-1-yl)sulfonyl)phenyl)-piperidin-4-yl)methyl)-1,2,3,6-tetrahydropyridin-4-yl)-1-methyl-1H-indazol-3-yl)dihydropyrimidine-2,4(1H,3H)-dione]
500 to 2500 nM	N#Cc1ccc(S(=O)(=O)N2CCC(Nc3ncc(Cl)cn3)CC2)cc1N1CCC(CN2CCN(c3cc4c(cc3F)C(=O)N(C3CCC(=O)NC3=O)C4=O)CC2)CC1 (stereo not drawn) [Example 185, 4-((4-((5-chloropyrimidin-2-yl)amino)piperidin-1-yl)sulfonyl)-2-(4-((4-(2-(2,6-dioxopiperidin-3-yl)-6-fluoro-1,3-dioxoisoindolin-5-yl)piperazin-1-yl)methyl)piperidin-1-yl)benzonitrile]
500 to 2500 nM	O=C1CCC(N2C(=O)c3cc(F)c(N4CCN(CC5CCN(c6cccc(S(=O)(=O)N7CCC(Nc8ncc(Cl)cn8)CC7)c6)CC5)CC4)cc3C2=O)C(=O)N1 (stereo not drawn) [Example 79, 5-(4-((1-(3-((4-((5-chloropyrimidin-2-yl)amino)piperidin-1-yl)sulfonyl)phenyl)-piperidin-4-yl)methyl)piperazin-1-yl)-2-(2,6-dioxopiperidin-3-yl)-6-fluoroisoindoline-1,3-dione]
> 2500 nM	Cn1nc(N2CCC(=O)NC2=O)c2ccc(N3C4CCC3CN(CC3CCN(c5cccc(S(=O)(=O)N6CCC(Nc7ncc(Cl)cn7)CC6)c5)CC3)C4)cc21 [Example 104, 1-(6-(3-((1-(3-((4-((5-chloropyrimidin-2-yl)amino)piperidin-1-yl)sulfonyl)phenyl)-piperidin-4-yl)methyl)-3,8-diaza-bicyclo[3.2.1]octan-8-yl)-1-methyl-1H-indazol-3-yl)dihydropyrimidine-2,4(1H,3H)-dione]
1 to 100 nM	C[C@@H]1CN(CC2CCN(c3cccc(S(=O)(=O)N4CCC(Nc5ncc(Cl)cn5)CC4)c3)CC2)C[C@H](C)N1c1ccc2c(N3CCC(=O)NC3=O)nn(C)c2c1 [Example 127, 1-(6-((2S,6R)-4-((1-(3-((4-((5-chloro-pyrimidin-2-yl)amino)piperidin-1-yl)-sulfonyl)phenyl)piperidin-4-yl)methyl)-2,6-dimethylpiperazin-1-yl)-1-methyl-1H-indazol-3-yl)dihydropyrimidine-2,4(1H,3H)-dione]
500 to 2500 nM	Cn1nc(N2CCC(=O)NC2=O)c2ccc(C3CCN(CC4CCN(c5cc(C(F)(F)F)cc(S(=O)(=O)N6CCC(Nc7ncc(Cl)cn7)CC6)c5)CC4)CC3)cc21 [Example 170, 1-(6-(1-((1-(3-((4-((5-chloropyrimidin-2-yl)amino)piperidin-1-yl)sulfonyl)-5-(trifluoromethyl)phenyl)piperidin-4-yl)methyl)piperidin-4-yl)-1-methyl-1H-indazol-3-yl)dihydropyrimidine-2,4(1H,3H)-dione]
